In the assay the test system is NLRP3. Put plainly: IL-1β secretion assay in PMA-differentiated, LPS/nigericin-stimulated THP-1 cells (384-well, ELISA read-out). It counts as cell-based, human. In outline: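 THP-1 cells differentiated with PMA (5 ng/mL, 40 h), primed in serum-free medium with 25 ng/mL LPS for 2 h, treated with compounds 1 h (0.5% DMSO), then stimulated with nigericin for 2 h at 37 °C. Supernatant IL-1β measured by ELISA; responses normalized to LPS+5 μM nigericin and LPS-only controls.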
(An ELISA detects its analyte on a solid surface through an enzyme-linked reagent.)

Where [1] appears, read: Homo sapiens, THP-1, IL-1β secretion, PMA-differentiated THP-1 cells, LPS then nigericin stimulation, ELISA read at 450 nm, read-out: Activity.
Where [2] appears, read: Homo sapiens, THP-1, Table 4, IL-1β secretion, LPS/nigericin-stimulated THP-1 cells, read-out: IC50.
Setting [3] is: Table 4, IL-1β secretion, LPS/nigericin-stimulated THP-1 cells, read-out: IC50.

The results in this text go back to patent US20230416205A1, “COMPOUNDS, COMPOSITIONS, AND METHODS” (Denali Therapeutics Inc, priority 2020, published 2023).

Like-named read-outs stand apart in the source and are kept apart here.

`O=C(CN1C[C@]2(C[C@H]2F)c2cc(C3CC3)ccc2C1=O)Nc1ncc(Cl)cn1` [Example 232]: the IC50 is, setting by setting: under setting [1], less than 10 µM; under setting [2], 0.028 µM.
For `O=C1c2ccc(Br)cc2C2(CC2)CN1CC(=O)N1CCc2cccnc21` [Example 158, 6-bromo-2-[2-(2,3-dihydropyrrolo[2,3-b]pyridin-1-yl)-2-oxoethyl]spiro[3H-isoquinoline-4,1′-cyclopropane]-1-one], the IC50 under setting [1] is less than 10 µM and the IC50 under setting [2] came out at 5.9 µM.
In the case of `O=C(CN1CC2(CC2)c2cc(Br)ccc2C1=O)Nc1ccnn1-c1ccccc1` [Example 152, 2-(6-bromo-1-oxospiro[3H-isoquinoline-4,1′-cyclopropane]-2-yl)-N-(2-phenylpyrazol-3-yl)acetamide], the IC50 under setting [1] was greater than 15 µM and the IC50 under setting [2] came to 21.6 µM.
Turning to `O=C(CN1CC2(CC2)c2cc(Br)ccc2C1=O)Nc1nccn2ncnc12` [Example 346, 2-(6-bromo-1-oxospiro[3H-isoquinoline-4,1′-cyclopropane]-2-yl)-N-([1,2,4]triazolo[1,5-a]pyrazin-8-yl)acetamide], the IC50 under setting [2] is 1.57 µM.
As for `O=C(CN1CC2(CC2)c2c(ccc(I)c2F)C1=O)Nc1ncc(F)cn1` [Example 108, 2-(5-fluoro-6-iodo-1-oxospiro[3H-isoquinoline-4,1′-cyclopropane]-2-yl)-N-(5-fluoropyrimidin-2-yl)acetamide], the IC50 reads like this: under setting [1], less than 10 µM; under setting [2], 0.018 µM.
`Cn1cc(-c2cnc(NC(=O)CN3CC4(CC4)c4cc(Br)ccc4C3=O)nc2)cn1` [Example 257, 2-(6-bromo-1-oxospiro[3H-isoquinoline-4,1′-cyclopropane]-2-yl)-N-[5-(1-methylpyrazol-4-yl)pyrimidin-2-yl]acetamide]: the IC50 by setting is: under setting [1], less than 10 µM; under setting [2], 0.392 µM.
The matching figures for `C=C(F)c1ccc2c(c1)[C@@]1(C[C@H]1F)CN(CC(=O)Nc1ncc(F)cn1)C2=O` [Example 273]: less than 10 µM and 0.059 µM.
Regarding `O=C(CN1C[C@@]2(C[C@@H]2F)c2cc(C(F)(F)F)ccc2C1=O)Nc1ncc(Cl)cn1` (single isomer, unassigned) [Example 238, N-(5-chloropyrimidin-2-yl)-2-[(2′s,4r)-2′-fluoro-1-oxo-6-(trifluoromethyl)spiro[3H-isoquinoline-4,1′-cyclopropane]-2-yl]acetamide], the IC50 reads like this: under setting [1], less than 10 µM; under setting [3], 0.414 µM.
As to `O=C(CN1CC2(CC2)c2cc(Br)ccc2C1=O)NC1CC(F)(F)C1` [Example 67, 2-(6-bromo-1-oxo-spiro[3H-isoquinoline-4,1′-cyclopropane]-2-yl)-N-(3,3-difluorocyclobutyl)acetamide], the IC50 under setting [1] is less than 10 µM and the IC50 under setting [2] worked out at 8.75 µM.
Consider `O=C(CN1CC2(CC2)c2cc(Br)ccc2C1=O)Nc1nc2ncccc2o1` [Example 209, 2-(6-bromo-1-oxo-spiro[3H-isoquinoline-4,1′-cyclopropane]-2-yl)-N-oxazolo[4,5-b]pyridin-2-yl-acetamide], for which the IC50 reads like this: under setting [1], less than 10 µM; under setting [2], 3.56 µM.
For `O=C(CN1CC2(CC2)c2c(ccc(C3C[C@@H]3F)c2F)C1=O)Nc1ncc(F)cn1` (single isomer, unassigned) [Example 306, 2-[5-fluoro-6-[(1r,2s)-2-fluorocyclopropyl]-1-oxospiro[3H-isoquinoline-4,1′-cyclopropane]-2-yl]-N-(5-fluoropyrimidin-2-yl)acetamide], the IC50 under setting [3] is 0.577 µM.
As to `N#Cc1cnc(NC(=O)CN2CC3(CC3(F)F)c3c(ccc(Br)c3F)C2=O)nc1` (single isomer, unassigned) [Example 319, 2-[6-bromo-1′,1′,5-trifluoro-1-oxospiro[3H-isoquinoline-4,2′-cyclopropane]-2-yl]-N-(5-cyanopyrimidin-2-yl)acetamide], under setting [3], the IC50 worked out at 3.05 µM.
On to `Cn1ncc2cc(NC(=O)CN3CC4(CC4)c4cc(Br)ccc4C3=O)ccc21` [Example 141, 2-(6-bromo-1-oxospiro[3H-isoquinoline-4,1′-cyclopropane]-2-yl)-N-(1-methylindazol-5-yl)acetamide], for which the IC50 was less than 10 µM under setting [1] and 1.23 µM under setting [2].
On to `CCC1(C)CN(CC(=O)Nc2ncccn2)C(=O)c2ccc(C(F)(F)F)cc21` (centres unmarked) [Example 30, 2-[4-ethyl-4-methyl-1-oxo-6-(trifluoromethyl)-3H-isoquinolin-2-yl]-N-pyrimidin-2-ylacetamide], for which the IC50 is greater than 15 µM under setting [1] and 15.1 µM under setting [2].
In the case of `O=C(CN1CC2(CC2)c2cc(Br)ccc2C1=O)NC1CCC(F)(F)CC1` [Example 15, 2-(6-bromo-1-oxospiro[3H-isoquinoline-4,1′-cyclopropane]-2-yl)-N-(4,4-difluorocyclohexyl)acetamide], the IC50 under setting [1] is less than 10 µM and the IC50 under setting [2] came out at 3.19 µM.
The matching figures for `COc1ccc2nc(NC(=O)CN3CC4(CC4)c4cc(Br)ccc4C3=O)nn2c1` [Example 262, 2-(6-bromo-1-oxospiro[3H-isoquinoline-4,1′-cyclopropane]-2-yl)-N-(6-methoxy-[1,2,4]triazolo[1,5-a]pyridin-2-yl)acetamide]: less than 10 µM and 0.253 µM.
Regarding `O=C(CN1CC2(CC2(F)F)c2c(ccc(Br)c2F)C1=O)Nc1ncc(Cl)cn1` (single isomer, unassigned) [Example 317, 2-[6-bromo-1′,1′,5-trifluoro-1-oxospiro[3H-isoquinoline-4,2′-cyclopropane]-2-yl]-N-(5-chloropyrimidin-2-yl)acetamide], the IC50 under setting [3] stood at 8.51 µM.
For the compound `Cn1ccnc(NC(=O)CN2CC3(CC3)c3cc(Br)ccc3C2=O)c1=O` [Example 348, 2-(6-bromo-1-oxospiro[3H-isoquinoline-4,1′-cyclopropane]-2-yl)-N-(4-methyl-3-oxopyrazin-2-yl)acetamide], under setting [2], the IC50 worked out at 1.32 µM.
Consider `O=C(CN1C[C@]2(C[C@H]2F)c2cc(Br)ccc2C1=O)Nc1ncc(C(F)(F)F)cn1` [Example 308, 2-[(2′R,4S)-6-bromo-2′-fluoro-1-oxospiro[3H-isoquinoline-4,1′-cyclopropane]-2-yl]-N-[5-(trifluoromethyl)pyrimidin-2-yl]acetamide], for which the IC50 under setting [2] turned out to be 0.025 µM.
Turning to `O=C(CN1CC2(CC2)c2cc(Br)ccc2C1=O)Nc1nc2cc(C(F)(F)F)ccn2n1` [Example 265, 2-(6-bromo-1-oxospiro[3H-isoquinoline-4,1′-cyclopropane]-2-yl)-N-[7-(trifluoromethyl)-[1,2,4]triazolo[1,5-a]pyridin-2-yl]acetamide], the IC50 was less than 10 µM under setting [1] and 0.335 µM under setting [2].
As for `N#Cc1cc(F)c(NC(=O)CN2CC3(CC3)c3cc(Br)ccc3C2=O)cn1` [Example 345, 2-(6-bromo-1-oxospiro[3H-isoquinoline-4,1′-cyclopropane]-2-yl)-N-(6-cyano-4-fluoropyridin-3-yl)acetamide], the IC50 under setting [2] was 15.1 µM.
For the compound `O=C(CN1CC(C(F)F)c2c(ccc(Br)c2F)C1=O)Nc1ncc(F)cn1` (single isomer, unassigned) [Example 295, 2-[6-bromo-4-(difluoromethyl)-5-fluoro-1-oxo-3,4-dihydroisoquinolin-2-yl]-N-(5-fluoropyrimidin-2-yl)acetamide], the IC50 was 10 to 15 µM under setting [1] and 12.8 µM under setting [3].
`CC(C)(C)OC(=O)N1CCC12CC(NC(=O)CN1CC3(CC3)c3cc(Br)ccc3C1=O)C2` (centres unmarked) [Example 394, tert-butyl 6-[[2-(6-bromo-1-oxospiro[3H-isoquinoline-4,1′-cyclopropane]-2-yl)acetyl]amino]-1-azaspiro[3.3]heptane-1-carboxylate]: the IC50 under setting [2] is 5.21 µM.
Turning to `O=C(CN1CC2(CC2)c2cc(Br)ccc2C1=O)N[C@H]1C[C@@H](CO)C1` [Example 64, 2-(6-bromo-1-oxo-spiro[3H-isoquinoline-4,1′-cyclopropane]-2-yl)-N-[cis-3-(hydroxymethyl)cyclobutyl]acetamide], the IC50 reads like this: under setting [1], less than 10 µM; under setting [2], 6.4 µM.
Take `C[C@@H]1[C@H](F)[C@]12CN(CC(=O)Nc1ncc(F)cn1)C(=O)c1ccc(Br)cc12` (single isomer, unassigned) [Example 278, 2-[(2′s,3′s,4r)-6-bromo-2′-fluoro-3′-methyl-1-oxospiro[3H-isoquinoline-4,1′-cyclopropane]-2-yl]-N-(5-fluoropyrimidin-2-yl)acetamide]: the IC50 by setting is: (IL-1β secretion, PMA-differentiated THP-1 cells, LPS then nigericin stimulation, ELISA read at 450 nm, read-out: Activity) less than 10 µM; under setting [3], 1.79 µM.
In the case of `CS(=O)(=O)CCNC(=O)CN1CC2(CC2)c2cc(Br)ccc2C1=O` [Example 139, 2-(6-bromo-1-oxospiro[3H-isoquinoline-4,1′-cyclopropane]-2-yl)-N-(2-methylsulfonylethyl)acetamide], the IC50 under setting [1] was greater than 15 µM and the IC50 under setting [2] worked out at 26.4 µM.
With `Cc1nc(NC(=O)CN2CC3(CC3)c3cc(Br)ccc3C2=O)nn1-c1ccccc1` [Example 412, 2-(6-bromo-1-oxospiro[3H-isoquinoline-4,1′-cyclopropane]-2-yl)-N-(5-methyl-1-phenyl-1,2,4-triazol-3-yl)acetamide], under setting [2], the IC50 came to 3.17 µM.
`O=C(CN1CC2(CC2)c2cc(Br)ccc2C1=O)Nc1cn2ccccc2n1` [Example 385]: under setting [2], the IC50 worked out at 1.82 µM.
Consider `O=C(CN1CC2(CC2)c2cc(Br)ccc2C1=O)Nc1ncc(-c2ccccn2)cn1` [Example 104, 2-(6-bromo-1-oxospiro[3H-isoquinoline-4,1′-cyclopropane]-2-yl)-N-(5-pyridin-2-ylpyrimidin-2-yl)acetamide], for which the IC50 under setting [1] is less than 10 µM and the IC50 under setting [2] came out at 1.87 µM.
As to `Cc1nc(-c2cccc(NC(=O)CN3CC4(CC4)c4cc(Br)ccc4C3=O)c2)cs1` [Example 142, 2-(6-bromo-1-oxospiro[3H-isoquinoline-4,1′-cyclopropane]-2-yl)-N-[3-(2-methyl-1,3-thiazol-4-yl)phenyl]acetamide], the IC50 was less than 10 µM under setting [1] and 1.78 µM under setting [2].
